Calls of active or inactive are those of the source. The calls are words filed in the database; no cut-off is given here.
Legend:
Caspase-9 (Homo sapiens) = target: T1, Caspase-9 (Homo sapiens) (UniProt P55211); assay: Inhibition of recombinant caspase-9 (unknown origin)
T1 sequence (whole entry): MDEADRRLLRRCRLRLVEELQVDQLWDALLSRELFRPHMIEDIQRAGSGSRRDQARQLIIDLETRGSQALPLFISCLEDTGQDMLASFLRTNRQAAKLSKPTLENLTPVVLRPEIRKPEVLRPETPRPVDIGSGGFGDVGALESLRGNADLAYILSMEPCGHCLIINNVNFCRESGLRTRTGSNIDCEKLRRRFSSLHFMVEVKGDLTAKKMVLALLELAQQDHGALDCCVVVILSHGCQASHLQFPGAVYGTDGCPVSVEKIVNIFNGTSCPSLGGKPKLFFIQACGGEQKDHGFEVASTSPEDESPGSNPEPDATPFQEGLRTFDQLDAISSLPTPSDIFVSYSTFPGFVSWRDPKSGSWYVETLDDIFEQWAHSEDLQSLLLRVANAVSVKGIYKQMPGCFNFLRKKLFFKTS

[1] = target: T2, Apoptotic protease-activating factor 1 (Homo sapiens) (UniProt O14727); assay: Binding affinity to Apaf1 (unknown origin) assessed as inhibition of procaspase-9 activity
T2 sequence (whole entry): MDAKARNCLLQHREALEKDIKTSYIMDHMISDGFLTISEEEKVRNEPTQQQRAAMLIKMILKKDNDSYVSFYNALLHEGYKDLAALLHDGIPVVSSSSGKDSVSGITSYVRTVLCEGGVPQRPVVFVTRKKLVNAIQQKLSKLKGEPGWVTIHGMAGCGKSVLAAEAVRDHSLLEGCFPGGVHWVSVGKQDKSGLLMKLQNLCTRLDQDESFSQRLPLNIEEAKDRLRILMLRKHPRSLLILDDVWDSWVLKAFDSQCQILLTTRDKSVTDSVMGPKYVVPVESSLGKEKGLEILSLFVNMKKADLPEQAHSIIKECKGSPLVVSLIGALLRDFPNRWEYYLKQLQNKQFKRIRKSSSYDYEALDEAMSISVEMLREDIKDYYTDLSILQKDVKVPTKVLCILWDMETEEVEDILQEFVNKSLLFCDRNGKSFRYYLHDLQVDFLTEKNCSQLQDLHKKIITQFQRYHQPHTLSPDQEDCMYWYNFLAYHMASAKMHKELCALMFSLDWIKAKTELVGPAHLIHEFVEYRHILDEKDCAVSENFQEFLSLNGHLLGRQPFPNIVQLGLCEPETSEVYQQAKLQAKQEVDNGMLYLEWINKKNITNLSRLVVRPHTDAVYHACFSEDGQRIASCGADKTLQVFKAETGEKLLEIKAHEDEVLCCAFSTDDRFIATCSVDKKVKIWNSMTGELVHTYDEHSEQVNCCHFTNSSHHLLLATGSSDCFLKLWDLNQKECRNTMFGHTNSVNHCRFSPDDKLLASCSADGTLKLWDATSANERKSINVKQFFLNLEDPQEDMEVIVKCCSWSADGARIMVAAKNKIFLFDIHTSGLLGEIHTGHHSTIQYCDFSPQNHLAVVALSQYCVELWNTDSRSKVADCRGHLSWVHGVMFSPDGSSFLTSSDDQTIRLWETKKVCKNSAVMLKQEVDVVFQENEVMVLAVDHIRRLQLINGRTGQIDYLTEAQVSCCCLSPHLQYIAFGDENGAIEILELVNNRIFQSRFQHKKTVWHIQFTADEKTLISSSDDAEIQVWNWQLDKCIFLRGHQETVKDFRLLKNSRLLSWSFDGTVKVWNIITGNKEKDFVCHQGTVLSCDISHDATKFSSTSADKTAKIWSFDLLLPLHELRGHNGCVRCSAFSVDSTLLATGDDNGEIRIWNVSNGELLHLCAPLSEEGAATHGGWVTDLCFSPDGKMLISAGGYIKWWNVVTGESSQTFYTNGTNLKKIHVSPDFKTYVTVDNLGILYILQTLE

SMILES	inhibition (Caspase-9 (Homo sapiens))	inhibition [1]
O=C1C(c2cn(CCc3ccc(Cl)cc3Cl)nn2)N(CCC(c2ccccc2)c2ccccc2)C(=O)CN1CCc1ccc(Cl)cc1Cl (stereo not drawn)	inactive	Active
O=C1CC(C(=O)NCCc2ccc(Cl)cc2Cl)(c2cnn(CCc3ccc(Cl)cc3Cl)n2)N1CCC(c1ccccc1)c1ccccc1 (racemic)	inactive	Active
NC(=O)CN(CCc1ccc(Cl)cc1Cl)C(=O)CC1C(=O)N(CCc2ccc(Cl)cc2Cl)CC(=O)N1CCC(c1ccccc1)c1ccccc1 (racemic)	inactive	Active
O=C1C(c2cnnn2CCc2ccc(Cl)cc2Cl)N(CCC(c2ccccc2)c2ccccc2)C(=O)CN1CCc1ccc(Cl)cc1Cl (racemic)	inactive	Active

Source: ChEMBL document CHEMBL2390898, “Optimizing the control of apoptosis by amide/triazole isosteric substitution in a constrained peptoid” (Eur J Med Chem, 2013)
